Data set [1] is described as follows: HPN-100 in subjects with hepatic impairment with cirrhosis and healthy adults: plasma metabolites. To be noted: all plasma samples, all subject groups. The class given is in vivo, human. The method, then:
(§1) To determine its pharmacokinetic (PK) and pharmacodynamic (PD) profile in patients with liver disease, clinical testing was conducted in which HPN-100 was administered orally as a single dose (100 mg/kg/day on day 1), and twice daily for 7 consecutive days (200 mg/kg/day on days 8 through 14, in two doses of 100 mg/kg per dose), to subjects with hepatic impairment with cirrhosis (Child-Pugh scores of A, B, or C) and to a gender and age-matched control group of healthy adults with normal hepatic function. On day 15, subjects received a single dose of HPN-100 (100 mg/kg). PK blood samples were taken pre-dose, at 15 and 30 minutes post-dose, and at 1, 1.5, 2, 3, 4, 6, 8, 12, and 24 hours post-dose on days 1, 8, and 15, and at 48 hours after dosing on days 1 and 15. On days 9-14, blood samples were taken pre-morning dose and at 2 hours post-morning dose. Urine was collected 0-4, 4-8, 8-12, and 12-24 hours post-dose on days 1, 8, and 15, and at 24-48 hours post-dose on days 1 and 15.

Data set [2] in a line: Illustrative UCD patient cases (Patients A, B, C): blood ammonia under nitrogen scavenging drug.
Description: In certain embodiments of the methods disclosed herein, blood samples used for measuring fasting blood ammonia levels and/or ULN blood ammonias are venous blood samples. In certain embodiments, a blood sample is a plasma blood sample. Any methods known in the art may be used to obtain a plasma blood sample. For example, blood from a subject may be drawn into a tube containing heparin or ethylenediaminetetraacetic acid (EDTA). In certain embodiments, the sample can be placed on ice and centrifuged to obtain plasma within 15 minutes of collection, stored at 2-8° C. […] In other embodiments, the blood plasma sample is snap frozen, stored at ≤−18° C. […] In certain embodiments, blood samples are taken in a laboratory or hospital setting. In certain embodiments, a single fasting blood sample is used to measure fasting blood ammonia level. However, in other embodiments, multiple fasting blood samples may be obtained. In certain embodiments, a subject's blood ammonia level may be monitored throughout the day. Further, in certain embodiments, the methods disclosed herein comprise an additional step of obtaining one or more blood samples from a subject prior to or after measuring fasting blood ammonia level.
Measurement of ammonia levels in a fasting blood sample is carried out using techniques known in the art. For example, ammonia levels may be measured using a colorimetric reaction or an enzymatic reaction. In certain embodiments, a colorimetric reaction may involve the use of bromophenol blue as an ammonia indicator. In these embodiments, ammonia may react with bromophenol blue to yield a blue dye. In certain embodiments, an enzymatic reaction may involve glutamate dehydrogenase catalyzing the reductive amination of 2-oxoglutarate with NH^4+ and NADPH to form glutamate and NADP^+. The formation of NADP^+ formed is directly proportional to the amount of ammonia present in the blood sample. Therefore, the concentration of ammonia is measured based on a decrease in absorbance.
Initial dosage is determined based on body surface area or as otherwise instructed according to HPN-100 drug labeling.
Data set [3] in a line: Population PK model (NONMEM) and Monte Carlo dosing simulations in UCD patients. The arrangement: species or system human. The method, then:
Diagnostic plots and statistical comparisons were used to select among candidate models, and covariates were assessed by graphical analyses and covariate modeling.

A short description of data set [4]: Relationship between PAA levels and neurological AEs in UCD patients (switchover and 12-month protocols). The class given is in vivo, human. To be noted: short term switchover.
Data set [5] can be described thus: Neuropsychological outcomes (BRIEF, CBCL, WASI) after 12 months HPN-100 in pediatric UCD patients. The data set is classed as in vivo, human. From the text: (§2) The relationship between reducing ammonia burden by maintaining fasting ammonia at or close to half ULN and neuropsychological outcomes in pediatric UCD patients was explored in clinical trials. […] These patients underwent 24-hr serial sample collection in a confined setting where the last sample at 24 hr was considered fasting and under supervision of the study personnel. At the end of treatment with HPN-100 the average fasting ammonia at 24-hr time point was 15.5 μmol/L or less than half ULN, indicating good clinical control. These 11 patients along with another 15 pediatric patients were enrolled in two long term studies and received HPN-100 for 12 months, during which monthly fasting ammonia were collected. At the time of enrollment and at the end of the study, all patients underwent assessment for neuropsychological outcomes including the following: BRIEF (Behavior Rating Inventory of Executive Function) to assess day-to-day executive functioning, CBCL (Child Behavior Checklist) to evaluate internalizing (e.g., mood/anxiety) and externalizing behaviors, and WASI (Wechsler Abbreviated Scale of Intelligence) to estimate of intellectual ability.
In pediatric patients, WASI and CBCL scores were stable in comparison to baseline. The majority of the BRIEF subscales at baseline were at or close to 65, consistent with borderline and/or clinically significant dysfunction. Among 22 pediatric subjects who completed the neuropsychological testing at 12 months, all BRIEF domains were improved (lower T scores) with means (SD) at end of study compared to baseline for Behavioral Regulation Index 53.7 (9.79) vs. 60.4 (14.03) (p<0.05); Metacognition Index 57.5 (9.84) vs. 67.5 (13.72) (p<0.001), and Global Executive Scale 56.5 (9.71) vs. 66.2 (14.02) (p<0.001).

A short description of data set [6]: Short term switch over comparison of NaPBA and HPN-100 in controlling ammonia, 24-hr serial sampling, pediatric UCD patients. The class given is in vivo, human. To be noted: end of treatment with HPN-100; 11 pediatric UCD patients ages 6-17.
Description: as §2

Data set [7] can be described thus: Two long term studies, HPN-100 for 12 months in pediatric UCD patients: monthly fasting ammonia and hyperammonemia episodes. The data set is classed as in vivo, human.
Description: as §2, with “ability. […]” for “ability.”

Data set [8] can be described thus: HPN-100 in subjects with hepatic impairment with cirrhosis and healthy adults (Study UP 1204-002): urinary excretion. To be noted: for PAGN Proportion excreted post-24 hours (%), of total PAGN eliminated over 48 hours: after dosing on day 1. The data set is classed as in vivo, human. The method, then: as §1
The mark [9] stands for this setting: after dosing on day 1 (0-48 hours), Child-Pugh A.
[10] abbreviates: after dosing on day 1 (0-48 hours), Child-Pugh B.
The mark [11] stands for this setting: after dosing on day 1 (0-48 hours), Child-Pugh C.
The mark [12] stands for this setting: after dosing on day 1 (0-48 hours), Healthy Volunteers.
[13] abbreviates: Patient A, 3 mL dose with each meal.

For `O=C(O)CNC(=O)Cc1ccccc1` [PAG, phenylacetyl glycine], in data set [1], the “alternative HPN-100 metabolite level in plasma” value is reported as “below the limit of quantification”.

As to `O=C(O)CNC(=O)CCCc1ccccc1` [PBG, phenylbutyryl glycine], the “alternative HPN-100 metabolite level in plasma” value in data set [1] was “below the limit of quantification”.

Regarding `NC(=O)CC[C@H](NC(=O)CCCc1ccccc1)C(=O)O` [PBGN, phenylbutyryl glutamine], the “alternative HPN-100 metabolite level in plasma” value in data set [1] is reported as “below the limit of quantification”.

For the compound `O=C([O-])c1ccccc1.[Na+]` [sodium benzoate, reference compound], the “fasting blood ammonia level” value in data set [2] (Patient C, adult UCD, 15 g/day for at least 7 days, 77 μmol/L before treatment) turned out to be 35 µmol/L. Further, the fasting ammonia level in data set [2] (Patient C, 18 grams per day for at least 7 days) turned out to be 15 µmol/L.

For “sodium phenylbutyrate [NaPBA, reference compound]”, the “fractional presystemic metabolism of PBA” value is 23% in data set [3] (adults) and 43% in data set [3] (pediatric patients). The “relationship between neurological AEs and PAA levels” value in data set [4] is “No statistically significant relationship”. The “fasting blood ammonia level” value in data set [2] (Patient B, 11-year UCD patient, 24 pills per day, suspected noncompliant) was found to be 40 µmol/L.

Regarding `O=C(CCCc1ccccc1)OCC(COC(=O)CCCc1ccccc1)OC(=O)CCCc1ccccc1` [HPN-100, glyceryl tri-[4-phenylbutyrate]], in data set [5] (22 pediatric subjects, baseline 60.4 (14.03), p<0.05), the “BRIEF Behavioral Regulation Index, T score mean (SD) at end of study” value was 53.7 (9.79). For the same compound, the “BRIEF Global Executive Scale, T score mean (SD) at end of study” value in data set [5] (22 pediatric subjects, baseline 66.2 (14.02), p<0.001) was 56.5 (9.71). The “BRIEF Metacognition Index, T score mean (SD) at end of study” value in data set [5] (22 pediatric subjects, baseline 67.5 (13.72), p<0.001) is 57.5 (9.84). Moreover, the “WASI and CBCL scores in comparison to baseline” value in data set [5] (pediatric patients) is listed as “stable”. Also, the entries for the “fractional presystemic metabolism of PBA” value in data set [3] (adults) and in data set [3] (pediatric patients) were 43% and 14%, respectively. For the same compound, the “slower PBA absorption when delivered as GPB vs. NaPBA” value in data set [3] (final popPK model) is approximately 60%. For the same compound, in data set [6], the “average fasting ammonia at 24-hr time point” value amounted to 15.5 µmol/L. In addition, the “relationship between neurological AEs and PAA levels” value in data set [4] is “No statistically significant relationship”. Moreover, the “episodes of acute hyperammonemia” value in data set [7] (during 12 month treatment, pediatric UCD patients, 9 in the 12 months before enrollment) is listed as 5. Moreover, the “peak ammonia, mean” value in data set [7] (during the 12 month study, 233 μmol/L before enrollment) turned out to be 166 µmol/L. The “urinary PAGN Amount Excreted” value is 15553 µmol in data set [8] (after dosing on day 1 (0-24 hours), Child-Pugh A (n = 8)); 16847 µmol in data set [8] (after dosing on day 1 (0-24 hours), Child-Pugh B (n = 8)); 19291 µmol in data set [8] (after dosing on day 1 (0-24 hours), Child-Pugh C (n = 8)); 14903 µmol in data set [8] (after dosing on day 1 (0-24 hours), Healthy Volunteers (n = 8)); 18386 µmol in data set [8] (setting [9]); 19902 µmol in data set [8] (setting [10]). Also, the “urinary PAGN Amount Excreted” value in data set [8] (setting [11]) was found to be 20854 µmol; in data set [8] (setting [12]), 17869 µmol; in data set [8] (after dosing on day 8 (0-12 hours), after first 100 mg/kg morning dose, Child-Pugh A) it was 16068 µmol; in data set [8] (after dosing on day 8 (0-12 hours), after first 100 mg/kg morning dose, Child-Pugh B) it was 13179 µmol; in data set [8] (after dosing on day 8 (0-12 hours), after first 100 mg/kg morning dose, Child-Pugh C), 15428 µmol; in data set [8] (after dosing on day 8 (0-12 hours), after first 100 mg/kg morning dose, Healthy Volunteers) it was 10195 µmol. Also, the “urinary PAGN Amount Excreted” value in data set [8] (after dosing on day 15 (0-48 hours), Child-Pugh A) was found to be 31431 µmol; in data set [8] (after dosing on day 15 (0-48 hours), Child-Pugh B), 25152 µmol; in data set [8] (after dosing on day 15 (0-48 hours), Child-Pugh C) it was 30752 µmol; in data set [8] (after dosing on day 15 (0-48 hours), Healthy Volunteers) it was 28716 µmol. For the same compound, the “PAGN Mole % of dose excreted” value in data set [8] (setting [9]) is on record as 47.1 Mole %; in data set [8] (setting [10]), 44.9 Mole %; in data set [8] (setting [11]) it was 48.5 Mole %; in data set [8] (setting [12]), 42.2 Mole %; in data set [8] (after dosing on day 8 (0-12 hours), Child-Pugh A), 40.6 Mole %; in data set [8] (after dosing on day 8 (0-12 hours), Child-Pugh B), 29.9 Mole %. Besides, the “PAGN Mole % of dose excreted” value in data set [8] (after dosing on day 8 (0-12 hours), Child-Pugh C) is 44.6 Mole %; in data set [8] (after dosing on day 8 (0-12 hours), Healthy Volunteers) it was 24.5 Mole %; in data set [8] (after dosing on day 15 (0-48 hours), % of the single morning dose of day 15, Child-Pugh A) it was 79.6 Mole %; in data set [8] (after dosing on day 15 (0-48 hours), % of the single morning dose of day 15, Child-Pugh B), 58.2 Mole %; in data set [8] (after dosing on day 15 (0-48 hours), % of the single morning dose of day 15, Child-Pugh C) it was 85.0 Mole %; in data set [8] (after dosing on day 15 (0-48 hours), % of the single morning dose of day 15, Healthy Volunteers), 68.6 Mole %. The “PAGN Proportion excreted post-24 hours (%), of total PAGN eliminated over 48 hours” value in data set [8] (Child-Pugh A) turned out to be 15.5%; in data set [8] (Child-Pugh B), 14.5%; in data set [8] (Child-Pugh C) it was 8.8%; in data set [8] (Healthy Volunteers) it was 16.9%. Besides, in data set [8] (after single dose administration, cirrhosis and healthy volunteers), the “average conversion of HPN-100 to PAGN” value is listed as 40-50%. The “HPN-100 dose administered excreted as PAGN” value in data set [8] (day 1) is reported as 42-49%; in data set [8] (day 8) it was 25-45%; in data set [8] (day 15), 58-85%. Moreover, the “effect of hepatic impairment on ammonia-scavenging ability” value in data set [8] (urinary PAGN excretion, Child-Pugh groups vs healthy volunteers) is on record as “no significant effect”. Also, the “fasting blood ammonia level” value is 33 µmol/L in data set [2] (Patient A, adult UCD, 9 mL/day for at least 7 days, 52 μmol/L before treatment) and 17 µmol/L in data set [2] (Patient B, 3.5 mL 3 times a day for at least 7 days). For the same compound, the average daily ammonia in data set [2] (setting [13]) was 66 µmol/L. The “maximum ammonia after dinner” value in data set [2] (setting [13]) worked out at 95 µmol/L. Besides, in data set [2] (Patient A, 12 mL total or 4 mL TID for at least 7 days), the fasting ammonia level was 15 µmol/L.

Values taken from patent US10183006B2, “Methods of therapeutic monitoring of nitrogen scavenging drugs” (Horizon Therapeutics, LLC, priority 2011, dated 2019).
